The test system of the first test is MCH receptors. In words: MCH receptor activity class (method not given). The note with it: MCH receptor activity class 1-3 (percent of control at 10^-7 M or IC50).
Regarding `CCOC(=O)[C@H](CC(C)C)NC(=O)NC[C@H]1CC[C@@H](Nc2cc(N(C)C)c3ccccc3n2)CC1` (relative stereo) [compound 2363], the class was 3 (Class 3 The value of percent of control at 10^−7 M was more than 60% or the value of IC50 was more than 200 nM.).

The test is the same for the next values; noted with them: MCH receptor; class by percent of control at 10^-7 M or IC50.
`CN(C)c1cc(N[C@H]2CC[C@@H](CNC(=O)c3ccc(F)c(Cl)c3F)CC2)nc2ccccc12` [compound 189, 3-chloro-N-[(cis-4-{[4-(dimethylamino)quinolin-2-yl]amino}cyclohexyl)methy]-2,4-difluorobenzamide]: the class is given as 3 (Class 3 The value of percent of control at 10^−7 M was more than 60% or the value of IC50 was more than 200 nM.).
`Cc1ccc(F)cc1NC(=O)N[C@H]1CC[C@@H](Nc2nc3c(c(N(C)C)n2)CCCC3)CC1` [compound 1902]: the class is reported as 3 (Class 3 The value of percent of control at 10^−7 M was more than 60% or the value of IC50 was more than 200 nM.).
As to `CN(C)c1nc(N[C@H]2CC[C@@H](NC(=S)Nc3ccc(Cl)cc3)CC2)nc2c1CCCC2` [compound 1934], the class is listed as 3 (Class 3 The value of percent of control at 10^−7 M was more than 60% or the value of IC50 was more than 200 nM.).

The same test, now with this note: activity class 1-3: percent of control at 10^-7 M or IC50.
For the compound `CN(C)c1ccnc(N[C@H]2CC[C@@H](CNC(=O)OCC(C)(C)C)CC2)n1` [compound 1640], the class is given as 3 (Class 3 The value of percent of control at 10^−7 M was more than 60% or the value of IC50 was more than 200 nM.).
Consider `CN(C)c1ccnc(N[C@H]2CC[C@@H](CNC(=O)OCC3c4ccccc4-c4ccccc43)CC2)n1` [compound 1657], for which the class is reported as 3 (Class 3 The value of percent of control at 10^−7 M was more than 60% or the value of IC50 was more than 200 nM.).
For `CN(C)c1cc(NC2CCC(NC(=O)OCc3ccccc3)CC2)nc2ccccc12` (stereo not drawn) [compound 1551], the class is 3 (Class 3 The value of percent of control at 10^−7 M was more than 60% or the value of IC50 was more than 200 nM.).

The same test, now with this note: activity class per percent of control at 10^-7 M or IC50.
With `COc1ccc(CNC[C@H]2CC[C@@H](Nc3cc(N(C)C)c4ccccc4n3)CC2)c(OC)c1` [compound 1131], the class is reported as 3 (Class 3 The value of percent of control at 10^−7 M was more than 60% or the value of IC50 was more than 200 nM.).

Still in this test, the particulars now being: class 1-3 by percent of control at 10^-7 M or IC50.
Take `CN(C)c1nc(N[C@H]2CC[C@@H](NC(=O)Cc3cccs3)CC2)nc2c1CCCC2` [compound 489]: the class was 3 (Class 3 The value of percent of control at 10^−7 M was more than 60% or the value of IC50 was more than 200 nM.).

Staying with this test, now noted: class by percent of control at 10^-7 M or IC50.
Take `CC(C(=O)N[C@H]1CC[C@@H](Nc2cc(N(C)C)c3ccccc3n2)CC1)c1ccc(N2Cc3ccccc3C2=O)cc1` (relative stereo) [compound 710]: the class is reported as 3 (Class 3 The value of percent of control at 10^−7 M was more than 60% or the value of IC50 was more than 200 nM.).
As to `CN(C)c1nc(N[C@H]2CC[C@@H](CNC(=O)c3cccc(F)c3F)CC2)nc2c1CCCC2` [compound 663], the class was 3 (Class 3 The value of percent of control at 10^−7 M was more than 60% or the value of IC50 was more than 200 nM.).
Take `Cc1cc(C(=O)NC[C@H]2CC[C@@H](Nc3nccc(N(C)C)n3)CC2)ccc1Br` [compound 402]: the class is recorded as 3 (Class 3 The value of percent of control at 10^−7 M was more than 60% or the value of IC50 was more than 200 nM.).
As to `COc1ccc(NC(=S)N[C@H]2CC[C@@H](Nc3nc4c(c(N(C)C)n3)CCCC4)CC2)cc1OC` [compound 1746, N-(3,4-dimethoxyphenyl)-N′-(cis-4-{[4-(dimethylamino)-5,6,7,8-tetrahydroquinazolin-2-yl]amino}cyclohexyl)thiourea], the class was 1 (Class 1: The value of percent of control at 10^−7 M was less than 40% or the value of IC50 was less than 50 nM.).
For `Cc1cc(Cl)ccc1NC(=O)N[C@H]1CC[C@@H](Nc2nc3c(c(N(C)C)n2)CCCC3)CC1` [compound 1724, N-(4-chloro-2-methylphenyl)-N′-(cis-4-{[4-(dimethylamino)-5,6,7,8-tetrahydroquinazolin-2-yl]amino}cyclohexyl)urea], the class is listed as 2 (Class 2: The value of percent of control at 10^−7 M was from 40% to 60% or the value of IC′50 was from 50 nM to 200 nM.).
Regarding `CCCCCC(=O)NC[C@H]1CC[C@@H](Nc2nc3c(c(N(C)C)n2)CCCC3)CC1` [compound 602], the class was 3 (Class 3 The value of percent of control at 10^−7 M was more than 60% or the value of IC50 was more than 200 nM.).
For the compound `CN(C)c1nc(N[C@H]2CC[C@@H](CNC(=O)OCc3ccccc3)CC2)nc2c1CCCC2` [compound 617], the class is reported as 3 (Class 3 The value of percent of control at 10^−7 M was more than 60% or the value of IC50 was more than 200 nM.).
For the compound `COc1cc(OC)c(NC(=O)N[C@H]2CC[C@@H](Nc3cc(N(C)C)c4ccccc4n3)CC2)cc1Cl` [compound 2157, N-(5-chloro-2,4-dimethoxyphenyl)-N′-(cis-4-{[4-(dimethylamino)quinolin-2-yl]amino}cyclohexyl)urea], the class is on record as 1 (Class 1: The value of percent of control at 10^−7 M was less than 40% or the value of IC50 was less than 50 nM.).
Still for that read-out and setting: for `CN(C)c1cc(N[C@H]2CC[C@@H](NC(=O)CCC(=O)c3cccs3)CC2)nc2ccccc12` [compound 745] the value was 3 (Class 3 The value of percent of control at 10^−7 M was more than 60% or the value of IC50 was more than 200 nM.); for `COC(=O)c1sccc1NC(=S)N[C@H]1CC[C@@H](Nc2nc3c(c(N(C)C)n2)CCCC3)CC1` [compound 1792], 3 (Class 3 The value of percent of control at 10^−7 M was more than 60% or the value of IC50 was more than 200 nM.); for `COc1ccc(NC(=O)N[C@H]2CC[C@@H](Nc3nc4c(c(N(C)C)n3)CCCC4)CC2)c(C)c1` [compound 1726], 2 (Class 2: The value of percent of control at 10^−7 M was from 40% to 60% or the value of IC′50 was from 50 nM to 200 nM.).
Regarding `COc1ccc(CN[C@H]2CC[C@@H](Nc3nccc(N(C)C)n3)CC2)c(OC)c1OC` [compound 1215], the class is listed as 3 (Class 3 The value of percent of control at 10^−7 M was more than 60% or the value of IC50 was more than 200 nM.).
Regarding `CCCCc1ccc(NC(=O)N[C@H]2CC[C@@H](Nc3nccc(N(C)C)n3)CC2)c(C)c1` [compound 2255], the class is 3 (Class 3 The value of percent of control at 10^−7 M was more than 60% or the value of IC50 was more than 200 nM.).
In the case of `Cc1cccc([N+](=O)[O-])c1NC(=O)NC[C@H]1CC[C@@H](Nc2nc3c(c(N(C)C)n2)CCCC3)CC1` [compound 2493], the class is recorded as 3 (Class 3 The value of percent of control at 10^−7 M was more than 60% or the value of IC50 was more than 200 nM.).
With `CN(C)c1nc(N[C@H]2CC[C@@H](NC(=O)Nc3cccc(C(F)(F)F)c3F)CC2)nc2c1CCCC2` [compound 1858], the class was 3 (Class 3 The value of percent of control at 10^−7 M was more than 60% or the value of IC50 was more than 200 nM.).
On the same count and under the same terms, for `CN(C)c1ccnc(N[C@H]2CC[C@@H](NC(=O)c3cc(C(C)(C)C)nn3Cc3ccc(Cl)cc3Cl)CC2)n1` [compound 360, 3-tert-butyl-1-(2,4-dichlorobenzyl)-N-(cis-4-{[4-(dimethylamino)pyrimidin-2-yl]amino}cyclohexyl)-1H-pyrazole-5-carboxamide] the value was 2 (Class 2: The value of percent of control at 10^−7 M was from 40% to 60% or the value of IC′50 was from 50 nM to 200 nM.).

Still in this test, the particulars now being: class by percent of control at 10^−7 M or IC50.
For `COc1cc(OC)cc(C(=O)N[C@H]2CC[C@@H](Nc3ncc(C)c(N(C)C)n3)CC2)c1` [compound 2900, N-(cis-4-{[4-(dimethylamino)-5-methylpyrimidin-2-yl]amino}cyclohexyl)-3,5-dimethoxybenzamide], the class is recorded as 1 (Class 1: The value of percent of control at 10^−7 M was less than 40% or the value of IC50 was less than 50 nM.).
Consider `Cc1cnc(N[C@H]2CC[C@@H](NC(=O)c3ccccc3F)CC2)nc1N(C)C` [compound 2916], for which the class is given as 3 (Class 3 The value of percent of control at 10^−7 M was more than 60% or the value of IC50 was more than 200 nM.).
With `Cc1cnc(N[C@H]2CC[C@@H](NC(=O)c3ccccc3Br)CC2)nc1N(C)C` [compound 2914], the class is on record as 3 (Class 3 The value of percent of control at 10^−7 M was more than 60% or the value of IC50 was more than 200 nM.).
For `Cc1cc(N(C)C)nc(N[C@H]2CC[C@@H](NC(=O)Cc3cc(C(F)(F)F)cc(C(F)(F)F)c3)CC2)n1` [compound 2950, 2-[3,5-bis(trifluoromethyl)phenyl]-N-(cis-4-{[4-(dimethylamino)-6-methylpyrimidin-2-yl]amino}cyclohexyl)acetamide], the class is reported as 2 (Class 2: The value of percent of control at 10^−7 M was from 40% to 60% or the value of IC′50 was from 50 nM to 200 nM.).
Regarding `CCOc1cccc(C(=O)N[C@H]2CC[C@@H](Nc3ncc(C)c(N(C)C)n3)CC2)c1` [compound 2927, N-(cis-4-{[4-(dimethylamino)-5-methylpyrimidin-2-yl]amino}cyclohexyl)-3-ethoxybenzamide], the class was 2 (Class 2: The value of percent of control at 10^−7 M was from 40% to 60% or the value of IC′50 was from 50 nM to 200 nM.).
For `Cc1cnc(N[C@H]2CC[C@@H](C(=O)N[C@@H](C)c3ccc([N+](=O)[O-])cc3)CC2)nc1N(C)C` [compound 2781, cis-4-{[4-(dimethylamino)-5-methylpyrimidin-2-yl]amino}-N-[(1S)-1-(4-nitrophenyl)ethyl]cyclohexanecarboxamide], the class is 2 (Class 2: The value of percent of control at 10^−7 M was from 40% to 60% or the value of IC′50 was from 50 nM to 200 nM.).
For the compound `Cc1cc(N(C)C)nc(NC[C@H]2CC[C@@H](NC(=O)c3ccc(OC(F)(F)F)cc3)CC2)n1` [compound 2742], the class is given as 3 (Class 3 The value of percent of control at 10^−7 M was more than 60% or the value of IC50 was more than 200 nM.).
Take `Cc1cc(N(C)C)nc(N[C@H]2CC[C@@H](CNC(=O)c3cccc(C(F)(F)F)c3)CC2)n1` [compound 2757]: the class was 3 (Class 3 The value of percent of control at 10^−7 M was more than 60% or the value of IC50 was more than 200 nM.).

The values above are taken from patent US20050197350A1, “Novel quinoline, tetrahydroquinazoline, and pyrimidine derivatives and methods of treatment related to the use thereof” (TAISHO PHARMACEUTICAL CO., LTD., priority 2003, published 2005).
